In patent US8865725B2, “Substituted imidazopyrimidin-5(6H)-ones as allosteric modulators of MGLUR5 receptors” (Vanderbilt University, priority 2011, dated 2014):
Where two headings read alike, the source gives them in different places.

What was measured:
human mGluR5a receptor = human mGluR5a receptor (Homo sapiens, UniProt P41594); assay: Cell-based functional assay (Ca2+ mobilization, FDSS) for positive allosteric modulation of mGluR5; details: for EC50: HEK cells transfected with human mGluR5a (H10H or H12H), potentiation in presence of EC20 glutamate; for Emax: maximum % effect in concentration-response curve, as percent of response to maximally effective glutamate concentration
Chain of human mGluR5a receptor (P41594 21-1180 isoform P41594-2 limits assumed): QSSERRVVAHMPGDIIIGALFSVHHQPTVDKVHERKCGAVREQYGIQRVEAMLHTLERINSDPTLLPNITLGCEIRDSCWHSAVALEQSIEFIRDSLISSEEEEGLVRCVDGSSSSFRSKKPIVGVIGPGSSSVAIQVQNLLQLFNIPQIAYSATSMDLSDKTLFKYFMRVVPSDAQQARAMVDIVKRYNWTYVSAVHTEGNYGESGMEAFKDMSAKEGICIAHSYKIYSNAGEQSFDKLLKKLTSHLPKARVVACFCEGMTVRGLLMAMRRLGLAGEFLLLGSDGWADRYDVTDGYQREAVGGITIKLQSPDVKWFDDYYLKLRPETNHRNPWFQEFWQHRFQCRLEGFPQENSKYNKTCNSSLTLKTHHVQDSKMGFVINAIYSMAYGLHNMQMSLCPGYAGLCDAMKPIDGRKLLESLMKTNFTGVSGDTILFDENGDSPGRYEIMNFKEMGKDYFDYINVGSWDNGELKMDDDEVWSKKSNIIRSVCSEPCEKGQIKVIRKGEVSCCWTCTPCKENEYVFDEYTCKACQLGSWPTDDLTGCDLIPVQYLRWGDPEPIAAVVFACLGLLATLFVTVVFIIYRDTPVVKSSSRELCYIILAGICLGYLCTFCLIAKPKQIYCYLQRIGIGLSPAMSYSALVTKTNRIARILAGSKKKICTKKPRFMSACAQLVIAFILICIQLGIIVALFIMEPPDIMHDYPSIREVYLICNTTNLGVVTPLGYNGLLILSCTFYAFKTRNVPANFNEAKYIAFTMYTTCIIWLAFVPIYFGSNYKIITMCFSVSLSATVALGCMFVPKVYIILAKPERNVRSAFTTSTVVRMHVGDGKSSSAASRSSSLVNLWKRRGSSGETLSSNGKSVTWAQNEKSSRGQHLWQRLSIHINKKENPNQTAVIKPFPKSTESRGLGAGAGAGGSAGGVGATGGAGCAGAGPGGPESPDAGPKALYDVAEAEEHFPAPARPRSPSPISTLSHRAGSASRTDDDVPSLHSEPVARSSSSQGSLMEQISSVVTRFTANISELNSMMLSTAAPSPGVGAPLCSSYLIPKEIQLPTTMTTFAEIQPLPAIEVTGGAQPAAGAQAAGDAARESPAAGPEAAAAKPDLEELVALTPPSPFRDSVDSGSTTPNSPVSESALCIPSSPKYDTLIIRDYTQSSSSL
Description: The mGluR5 activity was determined using the metabotropic glutamate receptor activity assays in human embryonic kidney cells as described herein, wherein the human embryonic kidney cells were transfected with human mGluR5. The compounds in Table I were synthesized with methods identical or analogous to those shown herein. The Synthetic Route Reference indicated in Table I refers to the Reaction Scheme number described above. The requisite starting materials were commercially available, described in the literature, or readily synthesized by one skilled in the art of organic synthesis.
Human mGluR5a cDNA in pCMV6-XL6 mammalian expression plasmid was purchased from OriGene Technologies, Inc. (catalogue number SC326357) and subcloned into pcDNA3.1(−). […] Monoclones were named for the species (“H” for human) plus the location on the plate (e.g. “10H”).
HEK cells transfected with the human mGluR5a receptor (H10H or H12H cell line) were plated at 15,000 cells/well in clear-bottomed poly-D-lysine-coated assay plates (BD Falcon) in glutamate-glutamine-free growth medium and incubated overnight at 37° C. and 5% CO2. Cell-lines used were either the H10H or H12H cell-lines expressing the human mGluR5 receptor. The following day, the growth medium was removed and the cells were washed with assay buffer containing 1× Hank's balanced salt solution (Invitrogen, Carlsbad, Calif.), 20 mM HEPES, 2.5 mM probenecid, pH 7.4 and left with 20 μL of this reagent. Following this step, the cells were loaded with calcium indicator dye, fluo-4 AM, to a final concentration of 2 μM and incubated for 40-45 min at 37° C. The dye solution was removed and replaced with assay buffer. Cell plates were held for 10-15 min at room temperature and were then loaded into the Functional Drug Screening System 6000 (FDSS 6000, Hamamatsu, Japan).
After establishment of a fluorescence baseline for about 3 seconds, the compounds of the present invention were added to the cells, and the response in cells was measured. 2.3 minutes later an EC20 concentration of the mGluR5 receptor agonist glutamate was added to the cells, and the response of the cells was measured for about 1.7 minutes. All test compounds were dissolved and diluted to a concentration of 10 mM in 100% DMSO and then serially diluted into assay buffer for a 2× stock solution in 0.6% DMSO; stock compounds were then added to the assay for a final DMSO concentration of 0.3% after the first addition to the assay well. Calcium fluorescence measures were recorded as fold over basal fluorescence; raw data was then normalized to the maximal response to glutamate.
The concentration-response curves of compounds of the present invention, obtained in the presence of EC20 of mGluR5 receptor agonist glutamate to determine positive allosteric modulation, were generated using Microsoft Excel with IDBS XLfit add-ins. The raw data file containing all time points was used as the data source in the analysis template. This was saved by the FDSS as a tab-delimitted text file. Data were normalized using a static ratio function (F/F0) for each measurement of the total 350 values per well divided by each well's initial value. Data was then reduced as to peak amplitudes (Max—Initial Min) using a time range that starts approximately 1 second after the glutamate EC20 addition and continues for approximately 40 seconds. This is sufficient time to capture the peak amplitude of the cellular Calcium response. Individual amplitudes were expressed as % EMax by multiplying each amplitude by 100 and then dividing the product by the mean of the amplitudes derived from the glutamate ECMax-treated wells. pEC50 values for test compounds were generated by fitting the normalized values versus the log of the test compound concentration (in mol/L) using a 4 parameter logistic equation where none of the parameters were fixed.

[1] = tested on: amphetamine-induced hyperlocomotion; assay: Reversal of amphetamine-induced hyperlocomotion; assay type: in vivo, male Sprague-Dawley rats; details: test compound by oral gavage in 20% HP-beta-CD; amphetamine sulfate 1 mg/kg sc; FIG. 4
Description: Locomotor activity was assessed as mean distance traveled (cm) in standard 16×16 photocell testing chambers measuring 43.2 cm (Length)×43.2 cm (Width)×30.5 cm (Height) (Med Associates, St. Albans, Vt.). Animals were habituated to individual activity chambers for at least 30 min prior to drug administration. Following administration of drug or vehicle, activity was recorded for a 90 minute time period. Data was expressed as the mean (±SEM) distance traveled recorded in 5 min intervals over the test period. The data was analyzed using repeated measures analysis of variance (ANOVA) followed by post-hoc testing using Dunnett's test, when appropriate. A difference was considered significant when p≦0.05. […]
The animals were habituated in Smart Open Field locomotor activity test chambers (Hamilton-Kinder, San Diego, Calif.) with 16×16 photobeams to automatically record locomotor activity for 30 min and then dosed with vehicle or test compound. […] At 60 min, all rats were injected subcutaneously with 1 mg/kg amphetamine or vehicle and then monitored for an additional 60 min. Animals are monitored for a total of 120 minutes. Data are expressed as changes in ambulation defined as total number of beam breaks per 5 min periods.
The data for the dose-response studies were analyzed by a between-group analysis of variance. […]

[2] = concentration in mol/L, read-out: pEC50 (converted)

Row | SMILES | EC50 (human mGluR5a receptor; read-out: EC50) | Emax (human mGluR5a receptor) | melting point | EC50 (human mGluR5a receptor; [2]) | reversal of amphetamine-induced hyperlocomotion [1] | EC50 (human mGluR5a receptor; EC50 (nM))
1 | Cc1c(COc2ccccc2)nc2n1C(=O)N(c1ccc(F)cc1)CC2 [compound 44, 6-(4-fluoro-phenyl)-3-methyl-2-phenoxymethyl-7,8-dihydro-6H-imidazo[1,2-c]pyrimidin-5-one] | > 30200 nM | 20% | 160.4 °C |  |  | 
2 | Cc1cccc(OCc2cn3c(n2)CCN(c2ccc(F)cc2)C3=O)c1 [compound 37, 6-(4-fluoro-phenyl)-2-m-tolyloxymethyl-7,8-dihydro-6H-imidazo[1,2-c]pyrimidin-5-one] | 191 nM | 48% | 169.3 °C | 204 nM |  | 
3 | O=C1N(c2ccc(F)cc2)CCc2nc(COc3ccccc3)cn21 [6-(4-fluorophenyl)-2-(phenoxymethyl)-7,8-dihydroimidazo[1,2-c]pyrimidin-5(6H)-one] |  |  |  |  | Dose-dependent results for reversal of amphetamine-induced hyperlocomotion | 
4 | O=c1n(-c2ccc(F)cc2)ccc2nc(COc3cccc(F)c3)cn12 [compound 6] |  | 73% | 141.1 °C | 214 nM |  | 224 nM
